From ChEMBL document CHEMBL1201862, “PubChem BioAssay data set” (2004)
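Exposure lasted 48 hours, with cells grown in 96-well plates and compounds tested at five concentrations. GI50 = concentration required for 50% inhibition of growth.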 Active and inactive are the calls of the source. Cut-off read from the data, not from the text of the source: active = GI50 up to about 1.1 µM and inactive = higher.

Assays:
Assay in all cases: NCI anticancer screen, dose series, 48 h
M19-MEL = tested on: M19-MEL
HCT-15 = tested on: HCT-15
HCC 2998 = tested on: HCC 2998
CCRF-CEM = tested on: CCRF-CEM
MOLT-4 = tested on: MOLT-4
EKVX = tested on: EKVX
HOP-62 = tested on: HOP-62
HL-60 = tested on: HL-60
SF-295 = tested on: SF-295
KM12 = tested on: KM12
SK-OV-3 = tested on: SK-OV-3
OVCAR-5 = tested on: OVCAR-5
SN12C = tested on: SN12C
UO-31 = tested on: UO-31
SR = tested on: SR
KM-20L2 = tested on: KM-20L2
SNB-75 = tested on: SNB-75
Malme-3M = tested on: Malme-3M
XF498 = tested on: XF498
SK-MEL-5 = tested on: SK-MEL-5
UACC-257 = tested on: UACC-257
OVCAR-3 = tested on: OVCAR-3
HOP-92 = tested on: HOP-92
M14 = tested on: M14
OVCAR-8 = tested on: OVCAR-8
RXF 393 = tested on: RXF 393
K562 = tested on: K562
SK-MEL-2 = tested on: SK-MEL-2
IGROV-1 = tested on: IGROV-1
SW-620 = tested on: SW-620
ACHN = tested on: ACHN
HT-29 = tested on: HT-29
HCT-116 = tested on: HCT-116
U-251 = tested on: U-251
LOX IMVI = tested on: LOX IMVI
NCI-H23 = tested on: NCI-H23
DMS-273 = tested on: DMS-273
NCI-H226 = tested on: NCI-H226
RPMI-8226 = tested on: RPMI-8226
NCI-H460 = tested on: NCI-H460
LXFL 529 = tested on: LXFL 529
COLO 205 = tested on: COLO 205
TK-10 = tested on: TK-10
SK-MEL-28 = tested on: SK-MEL-28
UACC-62 = tested on: UACC-62
DLD-1 = tested on: DLD-1
SF-268 = tested on: SF-268
A498 = tested on: A498
SF-539 = tested on: SF-539
OVCAR-4 = tested on: OVCAR-4
PC-3 = tested on: PC-3
A549 = tested on: A549
MCF7 = tested on: MCF7
MDA-N = tested on: MDA-N
MDA-MB-435 = tested on: MDA-MB-435
MDA-MB-231 = tested on: MDA-MB-231
NCI/ADR-RES = tested on: NCI/ADR-RES
786-0 = tested on: 786-0
CAKI-1 = tested on: CAKI-1
BT-549 = tested on: BT-549
NCI-H522 = tested on: NCI-H522
T47D = tested on: T47D
DU-145 = tested on: DU-145
SNB-19 = tested on: SNB-19
Hs-578T = tested on: Hs-578T

COc1cc2c(cc1OC)C(C1(O)CCCCC1)NCC2 (stereo unspecified)
GI50 (M19-MEL): > 100 µM (inactive)
GI50 (HCT-15): > 100 µM
GI50 (HCC 2998): > 100 µM (inactive)
GI50 (CCRF-CEM): > 100 µM (inactive)
GI50 (MOLT-4): > 100 µM (inactive)
GI50 (EKVX): > 100 µM (inactive)
GI50 (HOP-62): > 100 µM (inactive)
GI50 (HL-60): > 100 µM (inactive)
GI50 (SF-295): > 100 µM (inactive)
GI50 (KM12): > 100 µM (inactive)
GI50 (SK-OV-3): > 100 µM (inactive)
GI50 (OVCAR-5): > 100 µM (inactive)
GI50 (SN12C): > 100 µM (inactive)
GI50 (UO-31): > 100 µM (inactive)
GI50 (SR): > 100 µM (inactive)
GI50 (KM-20L2): > 100 µM (inactive)
GI50 (SNB-75): > 100 µM (inactive)
GI50 (Malme-3M): > 100 µM (inactive)
GI50 (XF498): > 100 µM (inactive)
GI50 (SK-MEL-5): > 100 µM (inactive)
GI50 (UACC-257): > 100 µM (inactive)
GI50 (OVCAR-3): > 100 µM (inactive)
GI50 (HOP-92): > 100 µM (inactive)
GI50 (M14): > 100 µM (inactive)
GI50 (OVCAR-8): > 100 µM (inactive)
GI50 (RXF 393): > 100 µM (inactive)
GI50 (K562): > 100 µM (inactive)
GI50 (SK-MEL-2): > 100 µM (inactive)
GI50 (IGROV-1): > 100 µM (inactive)
GI50 (SW-620): > 100 µM (inactive)
GI50 (ACHN): > 100 µM (inactive)
GI50 (HT-29): > 100 µM (inactive)
GI50 (HCT-116): > 100 µM (inactive)
GI50 (U-251): > 100 µM (inactive)
GI50 (LOX IMVI): > 100 µM (inactive)
GI50 (NCI-H23): > 100 µM (inactive)
GI50 (DMS-273): > 100 µM (inactive)
GI50 (NCI-H226): > 100 µM (inactive)
GI50 (RPMI-8226): > 100 µM (inactive)
GI50 (NCI-H460): > 100 µM (inactive)
GI50 (LXFL 529): > 100 µM (inactive)
GI50 (COLO 205): > 100 µM (inactive)
GI50 (TK-10): > 100 µM (inactive)
GI50 (SK-MEL-28): > 100 µM (inactive)
GI50 (UACC-62): > 100 µM (inactive)
GI50 (DLD-1): > 100 µM (inactive)
GI50 (SF-268): > 100 µM (inactive)

C=CC(C1=CC(=O)C(OC)=CC1=O)c1ccccc1 (stereo unspecified) [4-METHOXYDALBERGIONE]
GI50 (HCT-15): 14.3 µM
GI50 (HCC 2998): 16.7 µM (inactive)
GI50 (CCRF-CEM): 1.91 µM (inactive)
GI50 (MOLT-4): 2.16 µM (inactive)
GI50 (EKVX): 16.1 µM (inactive)
GI50 (HOP-62): 16.6 µM (inactive)
GI50 (HL-60): 2.38 µM (inactive)
GI50 (A498): > 51.2 µM (inactive)
GI50 (SF-295): 12.2 µM (inactive)
GI50 (KM12): 15.7 µM (inactive)
GI50 (SK-OV-3): 17.3 µM (inactive)
GI50 (OVCAR-5): 20.3 µM (inactive)
GI50 (SN12C): 14.3 µM (inactive)
GI50 (UO-31): 15.9 µM (inactive)
GI50 (SF-539): 14.2 µM (inactive)
GI50 (OVCAR-4): 14.7 µM (inactive)
GI50 (SR): 3.86 µM (inactive)
GI50 (PC-3): 9.53 µM (inactive)
GI50 (SNB-75): 18.1 µM (inactive)
GI50 (A549): 25.4 µM (inactive)
GI50 (MCF7): 7.48 µM (inactive)
GI50 (MDA-N): 13.8 µM (inactive)
GI50 (Malme-3M): 14.5 µM (inactive)
GI50 (MDA-MB-435): 13.8 µM (inactive)
GI50 (MDA-MB-231): 6.97 µM (inactive)
GI50 (NCI/ADR-RES): 18.5 µM (inactive)
GI50 (786-0): 14.1 µM (inactive)
GI50 (SK-MEL-5): 16.3 µM (inactive)
GI50 (UACC-257): 19.2 µM (inactive)
GI50 (OVCAR-3): 17.2 µM (inactive)
GI50 (HOP-92): 4.98 µM (inactive)
GI50 (CAKI-1): 17.2 µM (inactive)
GI50 (M14): 17.9 µM (inactive)
GI50 (OVCAR-8): 20.5 µM (inactive)
GI50 (RXF 393): 15.6 µM (inactive)
GI50 (K562): 3.33 µM (inactive)
GI50 (SK-MEL-2): 12.6 µM (inactive)
GI50 (IGROV-1): 16.4 µM (inactive)
GI50 (SW-620): 19.5 µM (inactive)
GI50 (ACHN): 14.3 µM (inactive)
GI50 (HT-29): 19.3 µM (inactive)
GI50 (HCT-116): 8.81 µM (inactive)
GI50 (U-251): 15.6 µM (inactive)
GI50 (LOX IMVI): 16.2 µM (inactive)
GI50 (NCI-H23): 16.1 µM (inactive)
GI50 (BT-549): 15.5 µM (inactive)
GI50 (NCI-H226): 17.1 µM (inactive)
GI50 (NCI-H522): 6.93 µM (inactive)
GI50 (T47D): 2.65 µM (inactive)
GI50 (RPMI-8226): 9.64 µM (inactive)
GI50 (NCI-H460): 17.1 µM (inactive)
GI50 (DU-145): 16.5 µM (inactive)
GI50 (SNB-19): 15.8 µM (inactive)
GI50 (COLO 205): 18.9 µM (inactive)
GI50 (TK-10): 18.1 µM (inactive)
GI50 (Hs-578T): 17.8 µM (inactive)
GI50 (SK-MEL-28): 15.5 µM (inactive)
GI50 (UACC-62): 14.6 µM (inactive)
GI50 (SF-268): 16.3 µM (inactive)
